Reference: patent US8039505B2, “Compounds for modulating T-cells” (University of Utah Research Foundation, priority 2007, dated 2011)
Entries after “also recorded” stand apart in the source; their conditions may differ.

Tests used:
[1] = tested on: cell cycle in zebrafish embryos; test: Cell cycle profiles in zebrafish embryos (propidium iodide, flow cytometry); assay type: in vivo; conditions: zebrafish embryos incubated from 4 hours post fertilization overnight, DNA content by flow cytometry
Description: FIG. 2 is a group of cell cycle profiles of active compounds tested in 24 hour zebrafish embryos. Specifically, embryos incubated with E3 fishwater (panel A), hydroxyurea (panel B), compound C4 (panel C), and compound C3 (panel D) are shown. After overnight incubation, single cell solution of embryos was prepared and incubated with propidium iodide. Samples were then subjected to flow cytometry to determine DNA content (X axis). Small arrowheads below the X-axis are placed beneath the diploid (G1) n=2 peak, and the tetraploid (G2/M) n=4 peaks. Cells between these two peaks are in S phase. Cells to the left of the G1 peak (sub G1 peak) have lost chromosomes (n<2), and are presumably dying (indicated as % debris in the right hand legend of each panel). Relative numbers of cells (Y-axis) in the different phases of the cell cycle are given on the right side of each panel.
All of these compounds were tested for effects on the cell cycle in zebrafish embryos. Zebrafish embryos were incubated at 4 hours post fertilization with compounds or controls. After overnight incubation in compounds, single cell solution of embryos was prepared and incubated with propidium iodide. Samples were then subjected to flow cytometry to determine DNA content. […] Examples are depicted in FIG. 2.
In FIG. 2, embryos incubated with (A) E3 fishwater, (B) hydroxyurea, (C) compound C4, and (D) C3 are shown. Diploid (G1, n=2) and tetraploid (G2/M, n=4) peaks are identified on the X-axis. Small arrowheads below the X-axis are placed beneath the dipoid (G1) n=2 peak, and the tetraploid (G2/M) n=4 peaks. Cells between these two peaks are in S phase. Cells to the left of the G1 peak (sub G1 peak) have lost chromosomes (n<2) and are presumably dying (indicated as % debris in the right hand legend of each panel). Relative numbers of cells (Y axis) in the different phases of the cell cycle are given on the right side of each panel.

[2] = tested on: human B-ALL line RS 4; 11; test: MTT cell viability, RS4;11; assay type: cell-based; conditions: RS4;11, 2.5 μM, 48 hours
Description: FIG. 3 is a graph showing viability of human T-ALL lines incubated with individual compounds. Specifically, two human ALL lines (B-ALL: RS4; 11 and T-ALL: Jurkat) were incubated on day 0 with serum or with 2.5 μM of the indicated compounds (except for aphidicolin 1 μM and cyclosporine 1.5 μM). 48 hours later, cells were tested for viability by MTT test. Results from the mean of 3 to 4 experiments carried out in triplicate (individual dots) and the mean of all experiments (horizontal bar) are indicated. Results are shown for compounds without a cell cycle effect (B). Viability of untreated cells was arbitrarily set at 1.0.
(§1) Cell culture experiments: Cells were incubated at 37° C. in 75 mL flasks in RPMI containing 10% FBS, 5 mL Penicillin/Streptomycin (100×) in a total volume of […]. Cells were counted using a hemocytometer, and 25,000 cells were plated in each well of a 96-well plate. Compounds and controls were added and cells were harvested after a 48 hr incubation period.
To assess effects of compounds, cell viability was measured. […] After crystal solubilization with DMSO a blue color (that is proportional to the amount of crystal formed) can be measured. […] Final optical density (OD) obtained from formazan formation was calculated OD=L1-L2 (background). […]

[3] = tested on: HEK293 human kidney cell line; test: Cell viability, kidney cell line; assay type: cell-based
Description: Experiments described in this document are carried out in zebrafish embryos (cell cycle experiments) and lck-GFP transgenic larvae (5 to 8 days after fertilization), and in human cell lines (Jurkat is a human T cell leukemia, RS4; 11 is a human B cell leukemia and HEK293 is a human kidney cell line).
as §1
To assess effects of compounds, cell viability was measured. For this, cells were incubated with MTT [3-(4,5-[…])-2,5 diphenyl Tetrazolium Bromid], a compound that is transformed into a formazan crystal by mitochondrial dehydrogenases. After crystal solubilization with DMSO a blue color (that is proportional to the amount of crystal formed) can be measured. Formazan solution absorbs light at 550-570 nm but not at 620-650 nm. 620-650 nm absorbency results from cell debris and well imperfections. Final optical density (OD) obtained from formazan formation was calculated OD=L1-L2 (background).
Next, the nine compounds were tested for activity against the human T-ALL line: Jurkat and the human B-ALL line RS 4; 11. […]

[4] = Complete blood count (CBC) evaluation in mice; assay type: in vivo, male Swiss Albino mouse; conditions: mouse, 48 h after dosing
Description: The pharmacokinetics of 1H-indole-3-carbaldehyde quinolin-8-ylhydrazone (Compound C3) was evaluated following intravenous (3 mg/kg) and oral (15 mg/kg) solution administration of 1H-indole-3-carbaldehyde quinolin-8-ylhydrazone in male Swiss Albino mouse. The effect of the Test Item, 1H-indole-3-carbaldehyde quinolin-8-ylhydrazone on complete blood count (CBC) was also evaluated. Pharmacokinetic phase consisted of two groups, Group 1 and Group 2. Animals in Group 1 were given intravenous bolus dose in a vehicle containing 5% N,N-dimethylacetamide, 5% CREMOPHOR™ EL and 90% Dextrose solution (5% w/v) and those in Group 2 were given oral solution dose in a vehicle, the composition of which was same as that of intravenous formulation. In addition, the effect of Test Item on complete blood count was evaluated following intravenous and oral dose administration along with its vehicle controls. A total of four groups were used each with 6 mice.
From the pharmacokinetic group, predose samples were collected from 3 animals in each group. Following dose administration terminal blood samples were collected at each of the following time points (in triplicate): 0.083 (only for intravenous), 0.25, 0.5, 1, 2, 4, 8, 12 and 24 hours. At each time point, approximately 500 μL of whole blood was withdrawn from the retro orbital sinus and collected in labeled tubes containing dipotassium EDTA as anticoagulant (20 μL of 200 mM K2 EDTA solution per mL of blood). Plasma was separated by centrifuging the whole blood at about 2500 g for 10 minutes at 4° C. within 1 h of sample collection. Separated plasma was stored below minus 50° C. until bioanalysis. A sensitive LC-MS/MS method was used for the quantitation of 1H-indole-3-carbaldehyde quinolin-8-ylhydrazone. The lower limit of quantitation was 1.04 ng/mL. For CBC evaluation, approximately 500 μL of blood was collected in labeled tubes containing dipotassium EDTA as anticoagulant (10 […]/mL of blood) after 48 h of dose administration from all animals.
A total of 24 mice were divided in to four groups as follows: […]

- Other hematological parameters vs vehicle control ([4]; intravenous 3 mg/kg and oral 15 mg/kg): no effect
- White blood cell count vs vehicle control ([4]; intravenous 3 mg/kg): lower
- Platelet count vs vehicle control ([4]; oral 15 mg/kg): lower
SMILES: C(=NNc1cccc2cccnc12)c1c[nH]c2ccccc12 [Compound C3, 1H-indole-3-carbaldehyde quinolin-8-ylhydrazone]
- Effect on the cell cycle [1]: lack of cell cycle effects
- Effect on the cell cycle ([1]; listed as 3): did not have any appreciable effect on the cell cycle; also recorded: does not affect the cell cycle
- Effect on B-ALL line (viability, MTT) [2]: neither the kidney cell line, nor the B-ALL were affected
- Effect on kidney cell line (viability) [3]: neither the kidney cell line, nor the B-ALL were affected
